Where two headings read alike, the source gives them in different places.
Columns and labels:
[1] = Free energy of hydration predicted with the QM-parameterized force field model (ARROW FF), classical MD and PIMD simulation in a water box; conditions: for Arrow error: Table 5, error of Arrow PIMD8 hydration free energy vs experiment; for Arrow PIMD8 Error: absolute error vs Exp (hydration)
Method in brief: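 Solute decoupled from solvent in a 32×32×32 Å3 water box (PME, 9 Å cutoffs), electrostatics, exchange-repulsion and dispersion switched off together over 15 lambda points with soft-coring. Steepest-descent minimization, 50 ps equilibration, 1 ns NPT production at 1 atm; classical and path-integral MD. Free energy from BAR and TI.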

[2] = Free energy of hydration predicted by General Amber Force Field (GAFF), from literature; conditions: Table 5; error of GAFF hydration free energy vs experiment
[3] = Free energy of hydration predicted by polarizable AMOEBA force field, from literature; conditions: Table 5; error of AMOEBA hydration free energy vs experiment
[4] = Free energy of hydration by Solvation Model Dielectric (SMD) implicit solvent model; conditions: absolute error vs Exp (hydration)
Method in brief: (§1)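 Implicit-solvent predictions of hydration free energy. MolPro supplied the COSMO solvation energies across the dataset. Predicted SMD and PCM values were received rather than computed here. Coverage for SMD, PCM and COSMO-RS matches the QM-parameterized force-field subset.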

[5] = Free energy of hydration by Polarizable Continuum Model (PCM); conditions: absolute error vs Exp (hydration)
Method in brief: as §1

[6] = Free energy of hydration by COSMO-RS
Method in brief: as §1

[7] = Free energy of hydration by Free Energy Machine Learning Model (FML); conditions: absolute error vs Exp (hydration)
Text: Machine learning models can be used for free energy determination.

[8] = experimental, cited from earlier work; for Exp (hydration): Table 5
[9] = experimental, cited from earlier work
[10] = Table 5; free energy of hydration, GAFF prediction taken from literature; cited from earlier work
[11] = Table 5; free energy of hydration, AMOEBA prediction taken from literature; cited from earlier work
[12] = implicit solvent model, values received; cited from earlier work
[13] = implicit solvent model, values received; cited from earlier work; remark: listed apart in the source
[14] = Free energy of hydration by COSMO implicit solvent model (MolPro ver. 2012); conditions: absolute error vs Exp (hydration)
Method in brief: as §1

[15] = Free energy of solvation in cyclohexane predicted with the QM-parameterized force field model (ARROW FF), MD and PIMD; conditions: Table 4; for CHEX Arrow MD Error: error of MD cyclohexane solvation free energy vs experiment; for CHEX Arrow PIMD4 Error: error of PIMD4 cyclohexane solvation free energy vs experiment
Method in brief: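 Solute–cyclohexane interactions decoupled over 15 λ points with soft-core scaling, in MD and path-integral simulations under NPT at 1 atm using PME electrostatics and 9 Å cutoffs. Each window had 50 ps equilibration and 1 ns production; free energies from BAR and TI.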

[16] = CHEX/H2O partition coefficient (log D) predicted with the QM-parameterized force field model (ARROW FF)
Method in brief: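 Cyclohexane/water partition coefficients were predicted by molecular simulation with a QM-parameterized force field, with bonded force constants and equilibrium values fitted to MP2/aug-cc-pVTZ energies. Solutes carried neutral functional groups, and results from four independent groups were averaged.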

[17] = CHEX/H2O partition coefficient, experimental, cited from earlier work; for logD Exp (logD): Table 4
[18] = Table 3, absolute error of MD hydration free energy vs experiment
[19] = Table 3, absolute error of PIMD8 hydration free energy vs experiment
[20] = Table 3, free energy of hydration
[21] = Table 3, free energy of solvation in cyclohexane
[22] = Table 4, error of MD hydration free energy vs experiment
[23] = Table 4, error of PIMD8 hydration free energy vs experiment
[24] = Table 4, neutral amino-acid analogues
[25] = Table 4, solvation free energy in cyclohexane

Structure (SMILES) | water Arrow MD Error [1, 18] [kcal/mol] | water Arrow PIMD8 Error [1, 19] [kcal/mol] | Arrow error [1] [kcal/mol] | Arrow PIMD8 Error [1] [kcal/mol] | GAFF error [2] [kcal/mol] | AMOEBA error [3] [kcal/mol] | SMD Error [4] [kcal/mol] | PCM Error [5] [kcal/mol] | COSMO-RS error [6] [kcal/mol] | FML error [7] [kcal/mol] | water Exp (hydration) [8, 20] [kcal/mol] | Exp (hydration) ([8]; free energy of hydration) [kcal/mol] | CHEX Exp (solvation) [9, 21] [kcal/mol] | GAFF [10] [kcal/mol] | AMOEBA [11] [kcal/mol] | SMD free energy of hydration [12] [kcal/mol] | PCM free energy of hydration [13] [kcal/mol] | COSMO/Molpro Error [14] [kcal/mol] | further results
CC(C)O [2-Propanol] | 1.26 | 0.00 | 0.00 | 0.00 | 1.34 | 0.41 | 0.32 | 1.52 | 0.00 | 0.29 | -4.62 | -4.62 | -2.37 | -3.28 | -4.21 | -4.30 | -3.10 | – | –
CC [Ethane] | 0.42 | 0.12 | 0.12 | 0.12 | 0.79 | 0.06 | 0.01 | 1.89 | 0.02 | 0.85 | 1.79 | 1.79 | – | 2.58 | 1.73 | 1.80 | -0.10 | 2.19 | –
CC(C)C [Isobutane] | 0.93 | 0.02 | – | 0.02 | – | – | 0.28 | 2.48 | 0.14 | 0.12 | 2.28 | – | -2.61 | – | – | 2.00 | -0.20 | 2.28 | water Arrow MD Error [1, 22]: 0.93 kcal/mol; water Arrow PIMD8 Error [1, 23]: 0.02 kcal/mol; CHEX Arrow MD Error [15]: 0.33 kcal/mol; CHEX Arrow PIMD4 Error [15]: 0.10 kcal/mol; log D Arrow MD Error [16]: 0.44; log D Arrow PIMD Error [16]: 0.06; logD Arrow MD Error [16]: 0.44; logD Arrow PIMD Error [16]: 0.06; water Exp (hydration) [8, 24]: 2.28 kcal/mol; CHEX Exp (solvation) [9, 25]: -2.61 kcal/mol; Exp (log D) ([17]; Table 3): 3.59; logD Exp (logD) [17]: 3.59
CNC(C)=O [N-Methylacetamide] | 1.52 | 0.49 | 0.49 | 0.49 | 1.61 | 1.34 | 1.40 | 3.40 | 0.27 | 1.89 | -10 | -10.00 | – | -8.39 | -8.66 | -8.60 | -6.60 | 3.10 | –
CCCCCCCCO [Octanol] | 1.40 | 0.22 | 0.22 | 0.22 | 1.11 | 1.44 | 0.69 | 0.79 | 0.18 | 0.02 | -4.09 | -4.09 | – | -5.20 | -2.65 | -3.40 | -3.30 | 2.57 | –
CCCO [Propanol] | 0.58 | 0.18 | 0.18 | 0.18 | 1.80 | 0.07 | 0.82 | 1.82 | 0.12 | 0.11 | -4.92 | -4.92 | -2.73 | -3.12 | -4.85 | -4.10 | -3.10 | 1.30 | –
c1cc[nH]c1 [Pyrrole] | 0.08 | 0.63 | 0.63 | 0.63 | 0.93 | 1.00 | – | – | 0.96 | 2.22 | -4.8 | -4.80 | – | -3.87 | -3.80 | – | – | 2.42 | –
CCC=O [propionaldehyde] | 0.30 | 0.25 | 0.45 | 0.25 | 0.02 | 0.35 | 0.33 | 0.17 | 0.26 | 0.05 | – | – | – | -3.41 | -3.08 | – | – | 4.76 | –
CCC(N)=O [propionamide] | 1.21 | 0.17 | – | 0.17 | – | – | – | – | – | 2.21 | -9.4 | – | – | – | – | – | – | 3.50 | water Arrow MD Error [1, 22]: 1.21 kcal/mol; water Arrow PIMD8 Error [1, 23]: 0.17 kcal/mol; CHEX Arrow MD Error [15]: 0.48 kcal/mol; CHEX Arrow PIMD4 Error [15]: 0.34 kcal/mol; logD Arrow MD Error ([16]; Table 4, error of MD logD vs experiment): 0.54; logD Arrow PIMD Error ([16]; Table 4, error of PIMD logD vs experiment): 0.12; water Exp (hydration) [8, 24]: -9.4 kcal/mol; CHEX Exp (solvation) [9, 25]: -3.77 kcal/mol; logD Exp (logD) [17]: −4.13
c1ccncc1 [pyridine] | 0.84 | 0.08 | 0.08 | 0.08 | 1.24 | 0.90 | 0.49 | 1.49 | 0.73 | 0.21 | -4.69 | -4.69 | -4.30 | -3.45 | -5.59 | -4.20 | -3.20 | 2.04 | –

— US20230129485A1, “SYSTEM AND METHOD FOR DETERMINING MATERIAL PROPERTIES OF MOLECULAR SYSTEMS FROM AN AB-INITIO PARAMETERIZED FORCE-FIELD” (InterX, Inc., priority 2021, published 2023)
